Source: patent US9045431B2, “Processes for the preparation of 5-HT2C receptor agonists” (Arena Pharmaceuticals, Inc., priority 2010, dated 2015)
Entries after “also recorded” stand apart in the source; their conditions may differ.

Experiments:
[1] = Dynamic moisture sorption (DMS); assay type: physicochemical; conditions: for DMS result (hygroscopicity / form conversion): isotherm 25° C., 10% RH to 90% or 95% RH
Method: Dynamic moisture-sorption (DMS) studies were conducted using a dynamic moisture-sorption analyzer, VTI Corporation, SGA-100. Samples were prepared for DMS analysis by placing 5 mg to 20 mg of a compound or a salt thereof in a tared sample holder. The sample was placed on the hang-down wire of the VTI balance. A drying step was run, typically at 40° C. and 0.5-1% RH for 1-2 h. The isotherm temperature is 25° C. Defined % RH holds typically ranged from 10% RH to 90% RH or 95% RH, with intervals of 10 to 20% RH. A % weight change smaller than 0.010% over a specified number of minutes (typically 10-20), or up to 2 h, whichever occurs first, is required before continuing to the next % RH hold. The water content of the sample equilibrated as described above was determined at each % RH hold.

[2] = cited from earlier work
[3] = cited from earlier work; for reported side effect: in some patients
[4] = Competitive slurry experiments / solution-mediated phase transformation (thermodynamic stability of crystal forms); assay type: physicochemical; conditions: for relative thermodynamic stability among the anhydrous polymorphs: ambient / room temperature
From the text: The thermodynamic relationships between the Compound 1 hydrochloride salt hemihydrate Form III and the anhydrous polymorphs of Compound 1 hydrochloride salt were established by competitive slurry experiments in acetonitrile and acetone at various aw, values.
At the critical aw, a given anhydrous form and Compound 1 hydrochloride salt hemihydrate Form III will have equal solubility and can coexist in equilibrium. Below the critical aw, the anhydrous form is more thermodynamically stable, thus less soluble. Above the critical water activity, Compound 1 hydrochloride salt hemihydrate Form III is more thermodynamically stable, thus less soluble. Solids from the competitive slurry experiments were identified by PXRD. Slurries with known aw values were used instead of humidity chambers because solution-mediated phase transformations (SMPTs) are much faster than vapor-mediated phase transformations, especially near the critical aw. […] FIG. 16 illustrates the critical aw of form Compound 1 hydrochloride salt hemihydrate Form III, with respect to Compound 1 hydrochloride salt Form I, and Compound 1 hydrochloride salt, IV.
For enantiotropic polymorphs, the temperature that marks the point at which two polymorphs have the same thermodynamic stability is called the transition temperature (Tt).

[5] = pivotal phase 3 program, treated for up to two years, fraction of patients
[6] = pivotal phase 3 program, up to two years
[7] = second phase 3 trial, top quartile

## C[C@H]1CNCCc2ccc(Cl)cc21.C[C@H]1CNCCc2ccc(Cl)cc21.Cl.Cl.O [(R)-8-Chloro-1-methyl-2,3,4,5-tetrahydro-1H-3-benzazepine Hydrochloride Hemihydrate Form III]
[1]; after DVS cycle
  change in crystalline form by PXRD after the DVS cycle: no change
[1]; at 90% RH
  water adsorbed in DMS: less than 0.5 wt %
[1]
  DMS result (hygroscopicity / form conversion): substantially non-hygroscopic
[1]; listed as Compound 1 Hydrochloride Salt Hemihydrate, Form III
  DMS result (hygroscopicity / form conversion): FIG. 11: non-hygroscopic

## C[C@H]1CNCCc2ccc(Cl)cc21.Cl [lorcaserin, (R)-8-Chloro-1-methyl-2,3,4,5-tetrahydro-1H-3-benzazepine hydrochloride]
[2]; clinical program
  adverse event that exceeded the placebo rate by 5%: generally mild or moderate, transient headache
  depression or suicidal ideation: no signal
  heart rate and blood pressure: went down
  quality of life: improved
  risk of cardiac valvulopathy: did not increase
[2]; compared to placebo
  secondary endpoints (body composition, lipids, cardiovascular risk factors, glycemic parameters): improved compared to placebo
[2]; first phase 3 trial, based on a normal BMI of 25, fraction of excess body weight
  excess body weight lost: about one-third
[2]; pivotal phase 3 program, on average
  average weight lost, of their weight: about 8%
[2]; [5]
  patients who achieved at least 5% weight loss: About two-thirds
  patients who achieved at least 10% weight loss: over one-third
[2]; [6]
  tolerability: excellent tolerability
  weight loss (in words): significant weight loss
[2]; [7]
  average weight loss, top quartile of patients: 35 pounds
  average weight loss, top quartile of patients, of body weight: 16%

## CCCCCCCCCCC[C@@H](C[C@@H]1OC(=O)[C@H]1CCCCCC)OC(=O)[C@H](CC(C)C)NC=O [Xenical™, Orlistat]
[3]
  reported side effect: gastrointestinal distress

## C[C@H]1CNCCc2ccc(Cl)cc21.Cl [Compound 1 hydrochloride salt Form II, (R)-8-Chloro-1-methyl-2,3,4,5-tetrahydro-1H-3-benzazepine Hydrochloride Salt Form II]
[4]
  relative thermodynamic stability among the anhydrous polymorphs: least stable anhydrous polymorph
[1]
  DMS result (hygroscopicity / form conversion): converting to the hemihydrate Form III
[1]; listed as Compound 1 Hydrochloride Salt Form II
  DMS result (hygroscopicity / form conversion): FIG. 7: Converts to Form III hemihydrate

## C[C@H]1CNCCc2ccc(Cl)cc21.Cl [Compound 1 hydrochloride salt Form IV, (R)-8-Chloro-1-methyl-2,3,4,5-tetrahydro-1H-3-benzazepine Hydrochloride Salt Form IV]
[4]
  relative thermodynamic stability among the anhydrous polymorphs: most stable of the three anhydrous polymorphs; also recorded: more stable than Compound 1 hydrochloride salt Form I
[4]; ambient temperature
  relative humidity at which the form is not thermodynamically favored over hemihydrate Form III: ≥ 20 % RH
[1]
  DMS result (hygroscopicity / form conversion): converting to Compound 1 hydrochloride salt Form III
[1]; listed as Compound 1 Hydrochloride Salt Form IV
  DMS result (hygroscopicity / form conversion): FIG. 14: Converts to hemihydrate

## CC(C)CC(N(C)C)C1(c2ccc(Cl)cc2)CCC1 (stereo not drawn) [Sibutramine]
[3]
  reported side effect: raised blood pressure

## C[C@H]1CNCCc2ccc(Cl)cc21.Cl [Compound 1 hydrochloride salt Form I, (R)-8-Chloro-1-methyl-2,3,4,5-tetrahydro-1H-3-benzazepine Hydrochloride Salt Form I]
[1]
  DMS result (hygroscopicity / form conversion): complete conversion to Compound 1 hydrochloride hemihydrate Form III
[1]; listed as Compound 1 Hydrochloride Salt Form I
  DMS result (hygroscopicity / form conversion): FIG. 3: Converts to Form III hemihydrate

## CCN[C@@H](C)Cc1cccc(C(F)(F)F)c1 [d-fenfluramine]
[3]; reports that led to withdrawal by the FDA in 1998
  cardiac valve defects, fraction of patients: up to one third
